Test results: patent US7691856B2, “Thiadiazoledioxides and thiadiazoleoxides as CXC- and CC-chemokine receptor ligands” (Schering Corporation, priority 2002, dated 2010)

Assays:
CCR7 = target: T1, CCR7 (Homo sapiens, UniProt P32248); assay: CCR7 [35S]GTPγS exchange assay (SPA, Ba/F3-CCR7 membranes)
T1 sequence (P32248 25-378): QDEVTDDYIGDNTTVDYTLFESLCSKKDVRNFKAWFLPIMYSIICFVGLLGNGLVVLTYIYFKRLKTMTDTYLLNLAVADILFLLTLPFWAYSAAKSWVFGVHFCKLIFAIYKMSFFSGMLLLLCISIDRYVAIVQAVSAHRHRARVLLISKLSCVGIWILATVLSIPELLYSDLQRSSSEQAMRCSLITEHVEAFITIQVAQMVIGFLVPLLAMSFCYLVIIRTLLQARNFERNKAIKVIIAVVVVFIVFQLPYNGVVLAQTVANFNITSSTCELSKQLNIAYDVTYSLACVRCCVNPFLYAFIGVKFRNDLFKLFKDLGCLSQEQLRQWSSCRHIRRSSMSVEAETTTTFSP
Protocol: CCR7 [^35S]GTPγS Exchange Assay.
The exchange of guanosine 5′-[γ-^35S]triphospate ([^35S]GTPγS, triethylammonium salt; specific activity 1250 Ci/mmol; NEN Boston, Mass.) was measured using a scintillation proximity assay (SPA) as previously described (Cox, et. al., Mol. Pharmacol., 59, 2001, 707-15). For each assay point, 2 μg of membrane was preincubated for 30 min at room temperature with 200 μg wheat germ agglutinin-coated SPA beads (WGA-SPA; Amersham, Arlington Heights, Ill.) in SPA binding buffer (50 mM HEPES, 10 mM MgCl2, 1 mM EDTA, 100 mM NaCl, 0.1% BSA, pH 7.6). The beads and membranes were transferred to a 96-well Isoplate (Wallac, Gaithersburg, Md.) and incubated with 10 μM guanosine 5′-diphosphate (GDP) in the presence or absence of 2 nM MIP-30 and/or compounds for 60 min at room temperature. The incubation continued for another 60 min. following the addition of 0.1 nM [^35S]GTPγS. Membrane-bound [^35S]GTPγS was measured using a 1450 Microbeta Trilux counter (Wallac, Gaithersburg, Md.).

hCXCR2 = target: T2, hCXCR2 (Homo sapiens, UniProt P25025); assay: CXCR2 SPA assay ([125I]-IL-8 binding, hCXCR2-CHO membranes); settings: [125I]-IL-8 binding to hCXCR2-CHO membranes
T2 construct: purchased Biosignal / Biosignal Packard; host or cells: CHO cells over-expressing hCXCR2 (membranes)
T2 sequence (P25025 1-360): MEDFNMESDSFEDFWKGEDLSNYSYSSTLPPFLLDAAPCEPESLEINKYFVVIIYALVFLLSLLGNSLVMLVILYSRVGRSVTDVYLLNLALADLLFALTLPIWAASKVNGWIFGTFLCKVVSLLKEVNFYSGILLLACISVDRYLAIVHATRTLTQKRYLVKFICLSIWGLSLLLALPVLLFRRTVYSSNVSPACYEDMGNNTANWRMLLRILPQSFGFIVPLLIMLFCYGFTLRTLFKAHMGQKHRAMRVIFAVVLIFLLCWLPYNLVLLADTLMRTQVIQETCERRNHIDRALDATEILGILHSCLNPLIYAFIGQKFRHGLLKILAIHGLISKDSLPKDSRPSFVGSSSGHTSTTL
Protocol: For each well of a 96 well plate, a reaction mixture of 4 μg hCXCR2-CHO overexpressing membranes (Biosignal) and 200 μg/well WGA-SPA beads (Amersham) in 100 μl was prepared in CXCR2 assay buffer (25 mM HEPES, pH 7.4, 2 mM CaCl2, 1 mM MgCl2). A 0.4 nM stock of ligand, [125I]-IL-8 (NEN), was prepared in the CXCR2 assay buffer. 20× stock solutions of test compounds were prepared in DMSO (Sigma). A 6× stock solution of GRO-α (R&D) was prepared in CXCR2 assay buffer. The above solutions were added to a 96-well assay plate (PerkinElmer or Corning) as follows: 10 μl test compound or DMSO, 40 ul CXCR2 assay buffer or GRO-α stock, 100 μl of reaction mixture, 50 μl of ligand stock (Final [Ligand]=0.1 nM). When 40× stock solutions of test compounds in DMSO were prepared, then the above protocol was used except instead 5 μl test compound or DMSO and 45 μl CXCR2 assay buffer were used. […]
For each 50 μl reaction, a working stock of 0.031 μg/μl hCXCR2-CHO over-expressing membranes with a specific activity of 0.4 pmol/mg (Biosignal Packard) and 2.5 μg/μl WGA-SPA beads (Perkin Elmer Life Sciences) was prepared in CXCR2 assay buffer (25 mM HEPES, pH 7.4, 2.0 mM CaCl2, 1 mM MgCl2) (Sigma). […] The assay plates were incubated for 2 hours before cpm/well were determined in a Microbeta Trilux counter (Perkin Elmer Life Sciences). IC50 values were quantified using nonlinear regression analysis in GraphPad Prism. […]
For each 200 μl reaction, a working stock of 0.02 μg/μl hCXCR2-CHO over-expressing membranes with a specific activity of 0.6 pmol/mg (Biosignal Packard) and 2 μg/μl WGA-SPA beads (Perkin Elmer Life Sciences) was prepared in CXCR2 assay buffer (25 mM HEPES, pH 7.4, 2.0 mM CaCl2, 1 mM MgCl2) (Sigma). […] The assay plates were incubated for 2 hours before cpm/well were determined in a Microbeta Trilux counter (Perkin Elmer Life Sciences). IC50 values were quantified using nonlinear regression analysis in GraphPad Prism.

hCXCR1 = target: T3, hCXCR1 (Homo sapiens, UniProt P25024); assay: CXCR1 SPA assay ([125I]-IL-8 binding, hCXCR1-CHO membranes); settings: [125I]-IL-8 binding to hCXCR1-CHO membranes
T3 construct: purchased Biosignal / Biosignal Packard; alternatively Euroscreen; host or cells: CHO cells over-expressing hCXCR1 (membranes)
T3 sequence (P25024 1-350): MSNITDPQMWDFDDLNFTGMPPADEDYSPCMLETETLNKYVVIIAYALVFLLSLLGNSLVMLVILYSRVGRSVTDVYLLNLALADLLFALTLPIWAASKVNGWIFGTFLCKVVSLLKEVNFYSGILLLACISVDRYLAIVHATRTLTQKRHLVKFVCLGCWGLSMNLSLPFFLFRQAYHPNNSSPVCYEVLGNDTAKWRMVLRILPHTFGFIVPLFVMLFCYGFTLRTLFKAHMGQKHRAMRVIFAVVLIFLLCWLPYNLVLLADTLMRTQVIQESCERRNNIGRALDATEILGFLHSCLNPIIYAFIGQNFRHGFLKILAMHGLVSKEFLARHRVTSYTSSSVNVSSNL
Protocol: For each well of a 96 well plate, a reaction mixture of 10 μg hCXCR1-CHO overexpressing membranes (Biosignal) and 200 μg/well WGA-SPA beads (Amersham) in 100 μl was prepared in CXCR1 assay buffer (25 mM HEPES, pH 7.8, 2 mM CaCl2, 1 mM MgCl2, 125 mM NaCl, 0.1% BSA) (Sigma). A 0.4 nM stock of ligand, [125I]-IL-8 (NEN) was prepared in the CXCR1 assay buffer. 20× stock solutions of test compounds were prepared in DMSO (Sigma). A 6× stock solution of IL-8 (R&D) was prepared in […] assay buffer. The above solutions were added to a 96-well assay plate (PerkinElmer) as follows: 10 μl test compound or DMSO, 40 μl CXCR1 assay buffer or IL-8 stock, 100 μl of reaction mixture, 50 μl of ligand stock (Final [Ligand]=0.1 nM). The assay plates were shaken for 5 minutes on plate shaker, then incubated for 8 hours before cpm/well were determined in Microbeta Trilux counter (PerkinElmer). % Inhibition of Total binding-NSB (250 nM IL-8) was determined for IC50 values.
Alternative CXCR1 SPA Assay
Protocol using CXCR1-expressing membranes from Biosignal Packard
For each 50 μl reaction, a working stock of 0.25 μg/μl hCXCR1-CHO over-expressing membranes with a specific activity of 0.05 pmol/mg (Biosignal Packard) and 25 μg/μl WGA-SPA beads (Perkin Elmer Life Sciences) was prepared in CXCR1 assay buffer (25 mM HEPES, pH 7.8, 0.1 mM CaCl2, 1 mM MgCl2, 100 mM NaCl) (Sigma). […] The assay plates were incubated for 4 hours before cpm/well were determined in a Microbeta Trilux counter (Perkin Elmer Life Sciences). IC50 values were quantified using nonlinear regression analysis in GraphPad Prism. […]
For each 50 μl reaction, a working stock of 0.025 μg/μl hCXCR1-CHO over-expressing membranes with a specific activity of 3.47 pmol/mg (Euroscreen) and 5 μg/μl WGA-SPA beads (Perkin Elmer Life Sciences) was prepared in CXCR1 assay buffer (25 mM HEPES, pH 7.8, 2.0 mM CaCl2, 1 mM MgCl2, 125 mM NaCl) (Sigma). […] The assay plates were incubated for 4 hours before cpm/well were determined in a Microbeta Trilux counter (Perkin Elmer Life Sciences). […]

Q: How did the EC50 (CCR7) turn out when CCC(C)(C)[C@@H](NC1=NS(=O)(=O)N=C1Nc1cccc(C(=O)N(C)C)c1O)c1ccc(C)o1 [Example 2106] was run?
A: 12 nM

Q: With Cc1cc([C@H](Nc2n[s+]([O-])nc2Nc2cccc(C(=O)N(C)C)c2O)C(C)C)oc1C (stereo partly drawn) [Example 201.9] as the molecule, how does the Ki (hCXCR2) read?
A: 2.7 nM

Q: What about the Ki (hCXCR1) of the same molecule?
A: 50 nM

Q: Which results are given for CC[C@@H](Nc1n[s+]([O-])nc1Nc1cccc(C(=O)N(C)C)c1O)c1cc(C(C)C)co1 (stereo partly drawn) [Example 201.1]?
A: Ki (hCXCR2): 3.5 nM; Ki (hCXCR1): 123 nM

Q: With CC(C)c1coc([C@H](NC2=NS(=O)(=O)N=C2Nc2ccc(Br)c(C(=O)N(C)C)c2O)C(C)(C)C)c1 [Example 56] as the molecule, how does the Ki (hCXCR2) read?
A: 7 nM

Q: What about the Ki (hCXCR1) of the same molecule?
A: 4 nM

Q: Which EC50 (CCR7) does the source give for CCN(CC)S(=O)(=O)c1scc(NC2=NS(=O)(=O)N=C2N[C@@H](c2ccc(C)o2)C(C)(C)C)c1O [Example 2065] here?
A: 13 nM

Q: How did the EC50 (CCR7) turn out when Cc1ccc([C@H](NC2=NS(=O)(=O)N=C2Nc2csc(S(=O)(=O)N3CCOCC3)c2O)C(C)(C)C)o1 [Example 2066] was run?
A: 16 nM
